Data as given in US4303785A, “Antitumor anthracycline antibiotics” (priority 1978, dated 1981).
In brackets after ≈: the same amount, converted by molar mass. Where two headings read alike, the source gives them in different places.

Assays:
[1] = cited from earlier work
L1210 leukemia cells = experiment: Growth inhibitory effect on L1210 cells in culture (Table 4); assay type: cell-based; conditions: for inhibition at 0.1 µg/mL / inhibition at 0.5 µg/mL: Mus musculus, L1210, read-out: Inhibition Rate (growth)
Description: For example, L1210 cells (5×10^4 cells/ml.) were inoculated in RPMI 1640 medium (Roswell Park Memorial Institute 1640) containing 20% calf serum and cultivated at 37° C. in the presence of 0.1 and 0.5 μg./ml. of the test compounds in a CO2 incubator.

[2] = tested on: various experimental tumors; conditions: cited from earlier work
L1210 cells [3] = experiment: animal or person; assay type: in vivo, CDF1 mice; conditions: once daily for 10 days; for response vs control in vivo at 0.15 mg/kg: 0.15 mg/kg/day i.p.; for response vs control in vivo at 0.31 mg/kg: 0.31 mg/kg/day i.p.; for response vs control in vivo at 0.625 mg/kg: 0.625 mg/kg/day i.p.; for response vs control in vivo at 1.25 mg/kg: 1.25 mg/kg/day i.p.; for response vs control in vivo at 2.5 mg/kg: 2.5 mg/kg/day i.p.
Description: D. Representative compounds of general formula I" were tested against experimental animal tumors as follows: […]
CDF1 mice were administered intraperitoneally (i.p.) with 1×10^5 cells/mouse of L1210 cells. After 24 hours had elapsed since inoculation, the mice were administered the test compounds intraperitoneally once daily for 10 consecutive days and observed for a 45 day period.
The antitumor activity was shown by the prolongation rate of survival day (T/C, %) to the survival day of control mice injected with physiological saline.

L1210 cells [4] = experiment: Inhibition of 14C-uridine and 14C-thymidine incorporation (nucleic acid synthesis) in L1210 cells in culture (Table 5); assay type: cell-based; conditions: for IC50: Mus musculus, L1210, 1 h
Description: The effect of the tetrahydropyranyl ether derivatives of formula I' on nucleic acid synthesis was examined as follows: […]
1×10^5 cells/ml. of L1210 cells were suspended in RPMI medium containing 10% calf serum, pre-cultivated at 37° C. for 1 to 2 hours in a CO2 incubator and then the test compounds were added to the medium at various concentrations. After 15 min. of incubation, ^14 C-uridine (0.05 μCi/ml.) or ^14 C-thymidine (0.05 μCi/ml.) was added and incubated at 37° C. for 60 min. Trichloroacetic acid (TCA) (10%) was added to the incubation medium to stop the reaction and precipitate the acid-insoluble materials, and then the precipitate was washed three times with 5 to 10% […]. The radioactivity was measured and expressed as 50% inhibition concentration of incorporation.

L1210 leukemia = experiment: Antitumor activity in BDF1 mice inoculated with L1210 leukemia cells (Table 6); assay type: in vivo; conditions: once daily for 10 days
Description: As an example, BDF1 mice were inoculated intraperitoneally with 1×10^6 cells/mouse of L1210 leukemia cells.

[5] = tested on: NADPH-cytochrome P450 reductase; experiment: Stability on rat hepatic NADPH-cytochrome P450 reductase: 7-deoxyaglycone formed (Table 7); assay type: in vitro ADME; conditions: 25° C., 25 min., nitrogen; substrate 0.1 mM, NADPH 0.2 mM, enzyme 4.6 μg./ml, pH 8.0
Description: C. The marked antitumor effects seen from A and B above were confirmed by the stability of the test compounds on the inactivation by hepatic NADPH-cytochrome P450 reductase. Specifically, NADPH-cytochrome P450 reductase purified from rat liver homogenate was incubated with the tetrahydropyranyl ether derivatives of formula I' at 25° C. for 25 min. in nitrogen gas phase, and the incubation product formed, 7-deoxyaglycone, was determined as shown in Table 7.

Staph. aureus FDA 209P = experiment: Minimum inhibitory concentration, broth dilution method (Table 3); assay type: cell-based
Description: (§1) To illustrate such activity, minimum inhibitory concentrations (as determined by the broth dilution method) of representative compounds are shown in Table 3.

Escherichia coli NIHJ = experiment: as above; assay type: cell-based
Description: as §1

Staph. aureus Smith = experiment: as above; assay type: cell-based
Description: as §1

[6] = tested on: Micrococcus flavus FDA 16; experiment: as above; assay type: cell-based; conditions: Micrococcus flavus FDA 16
Description: as §1

[7] = tested on: Bacillus subtillis NRRLB-558; experiment: as above; assay type: cell-based; conditions: Bacillus subtillis NRRLB-558
Description: as §1

Candida albicans = experiment: as above; assay type: cell-based
Description: as §1

Bacillus megaterium APF = experiment: as above; assay type: cell-based
Description: as §1

[8] = tested on: Pseudomonas aeruginosa A3; experiment: as above; assay type: cell-based; conditions: Pseudomonas aeruginosa A3
Description: as §1

[9] = tested on: Corynebacterium bovis 1810; experiment: as above; assay type: cell-based
Description: as §1

[10] = tested on: Mycobacterium smegmatis ATCC 607; experiment: as above; assay type: cell-based
Description: as §1

Sarcina lutea PCI 1001 = experiment: as above; assay type: cell-based
Description: as §1

[11] = tested on: Bacillus cereus ATCC 10702; experiment: as above; assay type: cell-based
Description: as §1

[12] = Mus musculus, L1210, ip, 1080 h, read-out: Antitumor Activity (T/C, prolongation rate of survival day)
[13] = read-out: 50% Inhibition Concentration of 14C-Thymidine Incorporation
[14] = read-out: 50% Inhibition Concentration of 14C-Uridine Incorporation

Compound	inhibition at 0.1 µg/mL (L1210 leukemia cells)	inhibition at 0.5 µg/mL (L1210 leukemia cells)	antitumor spectrum [2]	response vs control in vivo at 0.15 mg/kg (L1210 cells [3]; [12])	response vs control in vivo at 0.31 mg/kg (L1210 cells [3]; [12])	response vs control in vivo at 0.625 mg/kg (L1210 cells [3]; [12])	response vs control in vivo at 1.25 mg/kg (L1210 cells [3]; [12])	response vs control in vivo at 2.5 mg/kg (L1210 cells [3]; [12])	IC50 (L1210 cells [4]; [13])	IC50 (L1210 cells [4]; [14])	Antitumor Activity (T/C, prolongation rate of survival day) (L1210 leukemia; 0.15 mg./kg./day i.p.)	Antitumor Activity (T/C, prolongation rate of survival day) (L1210 leukemia; 0.3 mg./kg./day i.p.)	Antitumor Activity (T/C, prolongation rate of survival day) (L1210 leukemia; 5 mg./kg./day i.p.)	also measured
COc1cccc2c1C(=O)c1c(O)c3c(c(O)c1C2=O)C[C@@](O)(C(C)=O)C[C@@H]3O[C@H]1C[C@H](N)[C@H](O)[C@H](C)O1 [Daunomycin, daunomycin, reference compound]	68.8%	72.7%	broad antitumor spectrum against various experimental tumors	118%	132%	145%	191%	138%	0.7 µg/mL (≈ 1.33 µM)	0.4 µg/mL (≈ 0.758 µM)				side effects in clinical use ([1]; in vivo): severe side effects such as alopecia, leukopenia and cardiotoxicity; Antitumor Activity (T/C, prolongation rate of survival day) (L1210 cells [3]; 5 mg/kg/day i.p.): Tox.
COc1cccc2c1C(=O)c1c(O)c3c(c(O)c1C2=O)C[C@@](O)(C(=O)CO)C[C@@H]3O[C@H]1C[C@H](N)[C@H](O)[C@H](C)O1 [Adriamycin, adriamycin, reference compound]	70.7%	84.2%	broad antitumor spectrum against various experimental tumors	130%	147%	239%	272%	351%	2.1 µg/mL (≈ 3.86 µM)	0.5 µg/mL (≈ 0.92 µM)	128%	165%	toxic	side effects in clinical use ([1]; clinical antitumor agents): severe side effects such as alopecia, leukopenia and cardiotoxicity; response vs control in vivo at 5 mg/kg (L1210 cells [3]; Mus musculus, L1210, ip, 1080 h, 5 mg/kg/day i.p., read-out: Antitumor Activity (T/C, prolongation rate of survival day)): 189%
COc1cccc2c1C(=O)c1c(O)c3c(c(O)c1C2=O)C[C@@](O)(C(C)=O)C[C@@H]3O[C@H]1C[C@H](N)[C@H](OC2CCCCO2)[C@H](C)O1 (single isomer, unassigned; isomer b) [4'-O-PDb, 4'-O-tetrahydropyranyl daunomycin (isomer b)]											90%	103%	> 320%	Inhibition Rate (growth) (L1210 leukemia cells; 0.1 μg./ml.): 74.6%; Inhibition Rate (growth) (L1210 leukemia cells; 0.5 μg./ml.): 88.8%; Product (7-Deoxyaglycone) [5]: 46.6 nmoles/tube; Minimum Inhibitory Concentration (MIC) (Staph. aureus FDA 209P): 6.25 µg/mL; Minimum Inhibitory Concentration (MIC) (Escherichia coli NIHJ): > 100 µg/mL; Minimum Inhibitory Concentration (MIC) (Staph. aureus Smith): 3.12 µg/mL; Minimum Inhibitory Concentration (MIC) [6]: 1.56 µg/mL; Minimum Inhibitory Concentration (MIC) [7]: 1.56 µg/mL; Minimum Inhibitory Concentration (MIC) (Candida albicans): 25 µg/mL; Minimum Inhibitory Concentration (MIC) (Bacillus megaterium APF): 3.12 µg/mL; Minimum Inhibitory Concentration (MIC) [8]: > 50 µg/mL; Minimum Inhibitory Concentration (MIC) [9]: 0.78 µg/mL; Minimum Inhibitory Concentration (MIC) [10]: 6.25 µg/mL; Minimum Inhibitory Concentration (MIC) (Sarcina lutea PCI 1001): 0.39 µg/mL; Minimum Inhibitory Concentration (MIC) [11]: 6.25 µg/mL; 50% Inhibition Concentration of 14C-Thymidine Incorporation (L1210 cells [4]; thymidine, 60 min. at 37° C.): 0.32 µg/mL; 50% Inhibition Concentration of 14C-Uridine Incorporation (L1210 cells [4]; uridine, 60 min. at 37° C.): 0.20 µg/mL; Antitumor Activity (T/C, prolongation rate of survival day) (L1210 leukemia; 0.6 mg./kg./day i.p.): 115%; Antitumor Activity (T/C, prolongation rate of survival day) (L1210 leukemia; 1.25 mg./kg./day i.p.): 122%; Antitumor Activity (T/C, prolongation rate of survival day) (L1210 leukemia; 2.5 mg./kg./day i.p.): 256%
